Measurements published in PMC7190078 (Journal of medicinal chemistry, 2019).
Each block holds one compound with its values, some of them ahead of it.

Columns and labels:
HDAC8 = target: T1, HDAC8 (Homo sapiens, UniProt Q9BY41); assay: HDAC inhibition, electrophoretic mobility shift assay; format: biochemical
T1 sequence (Q9BY41 1-377): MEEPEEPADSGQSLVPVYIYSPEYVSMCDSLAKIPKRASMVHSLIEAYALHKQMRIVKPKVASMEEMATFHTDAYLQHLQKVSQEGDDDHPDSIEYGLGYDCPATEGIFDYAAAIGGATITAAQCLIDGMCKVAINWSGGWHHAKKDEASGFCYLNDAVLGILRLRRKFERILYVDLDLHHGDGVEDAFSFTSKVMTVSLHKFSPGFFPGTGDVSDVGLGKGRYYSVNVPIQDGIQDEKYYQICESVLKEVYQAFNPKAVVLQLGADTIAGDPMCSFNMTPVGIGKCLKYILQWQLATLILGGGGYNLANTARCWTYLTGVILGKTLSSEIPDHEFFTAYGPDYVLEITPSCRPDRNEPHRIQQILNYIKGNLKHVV

HDAC11 = target: T2, HDAC11 (Homo sapiens, UniProt Q96DB2); assay: as above; format: biochemical; settings: EMSA, n = 2
T2 sequence (Q96DB2 1-347): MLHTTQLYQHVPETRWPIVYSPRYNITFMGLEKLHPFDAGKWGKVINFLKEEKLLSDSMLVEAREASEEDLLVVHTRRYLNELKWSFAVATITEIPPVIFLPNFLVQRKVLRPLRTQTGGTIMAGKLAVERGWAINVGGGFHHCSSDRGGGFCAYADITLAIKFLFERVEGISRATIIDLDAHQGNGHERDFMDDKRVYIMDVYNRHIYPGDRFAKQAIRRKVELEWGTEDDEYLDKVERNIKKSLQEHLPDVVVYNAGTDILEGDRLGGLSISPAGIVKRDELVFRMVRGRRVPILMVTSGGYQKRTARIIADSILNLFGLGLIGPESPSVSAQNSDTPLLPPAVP

HDAC10 = target: T3, HDAC10 (Homo sapiens, UniProt Q969S8); assay: HDAC inhibition, EMSA at fixed concentration; format: biochemical
T3 sequence (Q969S8 1-669): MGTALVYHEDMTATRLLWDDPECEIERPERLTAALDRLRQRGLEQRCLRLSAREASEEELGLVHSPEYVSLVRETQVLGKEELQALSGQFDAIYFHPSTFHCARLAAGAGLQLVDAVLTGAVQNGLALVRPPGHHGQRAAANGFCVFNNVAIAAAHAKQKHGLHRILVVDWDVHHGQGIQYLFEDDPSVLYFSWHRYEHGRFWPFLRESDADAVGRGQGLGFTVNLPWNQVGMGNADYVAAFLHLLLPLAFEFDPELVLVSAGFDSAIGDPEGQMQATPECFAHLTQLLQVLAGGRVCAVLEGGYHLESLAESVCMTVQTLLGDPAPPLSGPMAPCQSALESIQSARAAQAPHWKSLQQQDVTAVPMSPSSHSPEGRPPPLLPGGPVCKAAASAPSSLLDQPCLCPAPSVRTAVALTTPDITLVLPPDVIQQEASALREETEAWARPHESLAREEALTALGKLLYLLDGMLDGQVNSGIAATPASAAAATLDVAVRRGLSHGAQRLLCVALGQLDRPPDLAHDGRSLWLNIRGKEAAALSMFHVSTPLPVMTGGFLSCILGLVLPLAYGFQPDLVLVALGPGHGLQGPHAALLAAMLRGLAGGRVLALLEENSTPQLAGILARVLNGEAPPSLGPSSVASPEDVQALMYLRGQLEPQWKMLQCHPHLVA

HDAC3 = HDAC3 (Homo sapiens, UniProt O15379); assay: HDAC inhibition, electrophoretic mobility shift assay; format: biochemical; settings: EMSA, n = 2
Sequence of HDAC3 (O15379 whole entry): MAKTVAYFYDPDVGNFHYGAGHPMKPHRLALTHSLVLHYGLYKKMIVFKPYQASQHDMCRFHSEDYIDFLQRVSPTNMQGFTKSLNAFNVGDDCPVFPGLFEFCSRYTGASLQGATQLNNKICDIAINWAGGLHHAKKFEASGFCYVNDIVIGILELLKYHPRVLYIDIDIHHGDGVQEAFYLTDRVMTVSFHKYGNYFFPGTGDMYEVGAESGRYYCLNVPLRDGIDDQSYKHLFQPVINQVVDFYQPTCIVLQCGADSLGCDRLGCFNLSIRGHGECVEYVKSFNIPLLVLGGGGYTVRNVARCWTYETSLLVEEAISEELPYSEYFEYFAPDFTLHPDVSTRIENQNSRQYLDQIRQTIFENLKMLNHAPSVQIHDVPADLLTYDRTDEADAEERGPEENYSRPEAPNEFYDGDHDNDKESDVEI
Sequence of HDAC3 (Q9Y618 395-489 partner limits assumed): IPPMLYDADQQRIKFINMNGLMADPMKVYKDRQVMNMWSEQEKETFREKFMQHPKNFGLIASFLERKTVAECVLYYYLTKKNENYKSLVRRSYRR

HDAC4 = HDAC4 (Homo sapiens, UniProt P56524); assay: HDAC inhibition, EMSA at fixed concentration; format: biochemical
Sequence of HDAC4 (P56524 whole entry): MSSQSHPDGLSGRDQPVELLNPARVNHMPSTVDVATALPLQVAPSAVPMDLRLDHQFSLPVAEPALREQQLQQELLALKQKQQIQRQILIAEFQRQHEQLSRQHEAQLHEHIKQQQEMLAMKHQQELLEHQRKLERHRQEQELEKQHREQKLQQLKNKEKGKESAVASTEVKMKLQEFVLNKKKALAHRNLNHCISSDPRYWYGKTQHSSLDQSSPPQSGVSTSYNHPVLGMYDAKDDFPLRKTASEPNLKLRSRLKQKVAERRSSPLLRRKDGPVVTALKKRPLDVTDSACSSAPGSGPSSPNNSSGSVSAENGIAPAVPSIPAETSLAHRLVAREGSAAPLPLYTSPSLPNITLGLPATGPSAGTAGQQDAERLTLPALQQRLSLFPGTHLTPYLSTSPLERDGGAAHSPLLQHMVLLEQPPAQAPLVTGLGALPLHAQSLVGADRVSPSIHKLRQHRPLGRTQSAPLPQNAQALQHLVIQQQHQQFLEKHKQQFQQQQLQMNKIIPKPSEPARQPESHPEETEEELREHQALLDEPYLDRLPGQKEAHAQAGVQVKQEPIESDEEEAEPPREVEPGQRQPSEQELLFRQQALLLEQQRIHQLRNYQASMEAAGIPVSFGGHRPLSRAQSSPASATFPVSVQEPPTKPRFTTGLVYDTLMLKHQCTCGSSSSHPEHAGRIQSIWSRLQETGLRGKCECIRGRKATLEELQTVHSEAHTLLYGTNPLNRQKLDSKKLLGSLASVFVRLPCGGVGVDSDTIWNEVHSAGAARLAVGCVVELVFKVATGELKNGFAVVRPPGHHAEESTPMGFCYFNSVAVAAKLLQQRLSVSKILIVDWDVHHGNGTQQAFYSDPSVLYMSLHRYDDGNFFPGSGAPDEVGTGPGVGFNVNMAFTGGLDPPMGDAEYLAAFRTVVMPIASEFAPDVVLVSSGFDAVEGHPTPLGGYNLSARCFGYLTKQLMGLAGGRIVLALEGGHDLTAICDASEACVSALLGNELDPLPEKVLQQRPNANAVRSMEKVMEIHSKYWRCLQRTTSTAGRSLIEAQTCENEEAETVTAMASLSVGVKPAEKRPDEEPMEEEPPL

HDAC6 = target: T4, HDAC6 (Homo sapiens, UniProt Q9UBN7); assay: HDAC inhibition, electrophoretic mobility shift assay; format: biochemical; settings: EMSA, n = 2
T4 sequence (Q9UBN7 1-1215): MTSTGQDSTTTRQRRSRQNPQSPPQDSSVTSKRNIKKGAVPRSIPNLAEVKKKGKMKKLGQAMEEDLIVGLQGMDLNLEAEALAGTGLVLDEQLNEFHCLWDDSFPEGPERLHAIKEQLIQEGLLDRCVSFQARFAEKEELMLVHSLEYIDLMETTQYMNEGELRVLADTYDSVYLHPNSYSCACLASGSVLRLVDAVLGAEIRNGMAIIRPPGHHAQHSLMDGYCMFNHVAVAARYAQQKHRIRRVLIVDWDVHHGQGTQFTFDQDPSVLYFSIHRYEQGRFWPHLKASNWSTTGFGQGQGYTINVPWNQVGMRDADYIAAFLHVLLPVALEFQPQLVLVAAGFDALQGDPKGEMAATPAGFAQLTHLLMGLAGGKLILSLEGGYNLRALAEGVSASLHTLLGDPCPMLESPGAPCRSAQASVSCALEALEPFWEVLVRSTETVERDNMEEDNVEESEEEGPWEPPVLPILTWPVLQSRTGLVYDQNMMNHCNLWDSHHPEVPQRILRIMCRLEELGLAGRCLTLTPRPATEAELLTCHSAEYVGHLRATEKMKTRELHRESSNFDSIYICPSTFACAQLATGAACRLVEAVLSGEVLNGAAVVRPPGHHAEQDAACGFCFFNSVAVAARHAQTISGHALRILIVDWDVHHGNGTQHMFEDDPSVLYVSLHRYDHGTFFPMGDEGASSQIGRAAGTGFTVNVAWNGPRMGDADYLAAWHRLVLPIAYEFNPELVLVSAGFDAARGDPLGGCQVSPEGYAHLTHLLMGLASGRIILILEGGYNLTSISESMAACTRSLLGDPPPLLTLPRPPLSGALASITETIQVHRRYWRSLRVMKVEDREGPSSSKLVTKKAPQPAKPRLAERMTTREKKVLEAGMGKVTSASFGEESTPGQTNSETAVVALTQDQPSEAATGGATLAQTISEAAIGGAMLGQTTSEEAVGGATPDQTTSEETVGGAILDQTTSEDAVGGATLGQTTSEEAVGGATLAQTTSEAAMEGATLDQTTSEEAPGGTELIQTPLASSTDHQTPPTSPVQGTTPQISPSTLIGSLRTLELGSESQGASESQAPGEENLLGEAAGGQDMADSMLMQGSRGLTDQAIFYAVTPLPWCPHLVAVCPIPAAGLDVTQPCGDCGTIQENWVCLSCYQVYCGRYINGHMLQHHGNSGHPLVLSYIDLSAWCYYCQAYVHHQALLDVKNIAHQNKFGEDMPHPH

HDAC1 = HDAC1 (Homo sapiens, UniProt Q13547); assay: HDAC inhibition, EMSA at fixed concentration; format: biochemical
Sequence of HDAC1 (Q13547 whole entry): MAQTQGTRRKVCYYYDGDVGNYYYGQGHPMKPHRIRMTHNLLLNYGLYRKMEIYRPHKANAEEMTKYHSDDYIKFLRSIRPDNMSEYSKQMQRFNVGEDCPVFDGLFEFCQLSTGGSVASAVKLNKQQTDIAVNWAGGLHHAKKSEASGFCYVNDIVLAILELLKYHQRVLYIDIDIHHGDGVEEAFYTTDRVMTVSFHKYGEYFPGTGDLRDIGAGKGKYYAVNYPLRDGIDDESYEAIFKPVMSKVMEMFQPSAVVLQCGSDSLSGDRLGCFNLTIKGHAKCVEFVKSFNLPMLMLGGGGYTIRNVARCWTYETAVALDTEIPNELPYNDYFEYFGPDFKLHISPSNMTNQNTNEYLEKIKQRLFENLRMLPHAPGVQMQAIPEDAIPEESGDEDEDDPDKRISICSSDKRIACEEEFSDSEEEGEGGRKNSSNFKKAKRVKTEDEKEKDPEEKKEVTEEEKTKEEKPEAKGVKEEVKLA

[1] = tested on: equivalent immunodeficient mice; assay: Orthotopic tumor model in immunodeficient mice, survival
[2] = Single-dose pharmacokinetics in NSG mice; format: in vivo, mouse
[3] = tested on: chronic myelogenous leukemia K562 cells; assay: Cytotoxicity assay; format: cell-based, human
STAT3 (total and pY705) = assay: Western blot, STAT3 signaling in MDA-MB-231 cells; format: cell-based, human; settings: at 10-fold of the IC50
[4] = Mouse plasma protein binding assay; format: in vitro ADME; settings: both, CD-1, mouse
[5] = Serum concentration after 5 days daily dosing in NSG mice; format: in vivo, mouse; settings: for concentration at 5 h: NSG, mouse, serum, intraperitoneal
[6] = tested on: PC-3 prostate cancer cells; assay: Cytotoxicity in prostate cancer cells; format: cell-based, human
[7] = tested on: MRC-9 lung cells (noncancerous); assay: Cytotoxicity assay; format: cell-based, human
[8] = Glutathione stability assay using 19F NMR; format: physicochemical; settings: 100-fold excess glutathione, after 16 h
MV4–11 AML cells = assay: Cytotoxicity assay; format: cell-based; settings: Homo sapiens, MV4-11, read-out: IC50 (cytotoxicity)
[9] = Caco-2 permeability assay; format: in vitro ADME; settings: human
NSG mice = assay: Toxicity study; format: in vivo
[10] = tested on: brain tumor stem cell (BTSC) glioblastoma lines; assay: Cytotoxicity assay in GBM BTSCs; format: cell-based, human; settings: multiple BTSC glioblastoma lines
D458 recurrent MDB cells = assay: Cytotoxicity assay in medulloblastoma cells; format: cell-based, human
[11] = tested on: D425 primary medulloblastoma (MDB) cells; assay: Cytotoxicity assay in medulloblastoma cells; format: cell-based, human
STAT5b (total and pY694) = assay: Western blot, STAT5 signaling in MV4–11 cells; format: cell-based, human; settings: at 10 μM
[12] = Glutathione stability assay using HPLC; format: physicochemical; settings: 100-fold excess reduced L-glutathione, HEPES buffer pH 7.4, after 25 h
[13] = tested on: MOLM-13 acute myeloid leukemia (AML) cells; assay: Cytotoxicity assay; format: cell-based, human; settings: MOLM-13 AML cells

% inhibition HDAC8 (HDAC8; at 10 μM, EMSA, n = 2): 0%
% inhibition HDAC11 (HDAC11; at 10 μM): 64%
% inhibition HDAC10 (HDAC10; at 10 μM, n = 2): 0%
% inhibition HDAC3 (HDAC3; at 10 μM): 0%
% inhibition HDAC4 (HDAC4; at 10 μM, n = 2): 0%
% inhibition HDAC6 (HDAC6; at 10 μM): 12%
% inhibition HDAC1 (HDAC1; at 10 μM, n = 2): 0%
Compound: CN(O)C(=O)c1ccc(N(Cc2ccc(C(C)(C)C)cc2)C(=O)CN(Cc2c(F)c(F)c(F)c(F)c2F)S(=O)(=O)c2ccc(F)cc2)cc1 [compound 60, 4-(N-(4-(tert-Butyl)benzyl)-2-((4-fluoro-N-((perfluorophenyl)-methyl)phenyl)sulfonamido)acetamido)-N-hydroxy-N-methylbenzamide]

Compound: CC(C)(C)c1ccc(CN(C(=O)CN(Cc2c(F)c(F)c(F)c(F)c2F)S(=O)(=O)c2ccc(F)cc2)c2ccc(C(=O)NO)cc2)cc1 [AES-135, 4-(N-(4-(tert-Butyl)benzyl)-2-((4-fluoro-N-((perfluorophenyl)-methyl)phenyl)sulfonamido)acetamido)-N-hydroxybenzamide]
survival advantage [1]: no obvious survival advantage
IC50 (HDAC8): 1.1 µM
inhibition at 10 µM (HDAC8; read-out: % inhibition HDAC8, at 10 μM, EMSA, n = 2): > 90%
duration of micromolar (μM) concentrations ([2]; IP injection): > 10 h
clearance rate ([2]; single 20 mg/kg IP, assuming bioavailability to be 100%): 0.004 L/h
inhibition at 10 µM (HDAC11; read-out: % inhibition HDAC11, at 10 μM): > 90%
sensitivity to cytotoxicity [3]: resistant
effect on total STAT3 and pY705 STAT3 (Western blot) (STAT3 (total and pY705)): neither total STAT3 nor pY705 STAT3 was significantly reduced
inhibition at 10 µM (HDAC10; read-out: % inhibition HDAC10, at 10 μM, n = 2): ≥ 70%
recovery at 6 h ([4]; mouse plasma): 16 to 20%
fraction unbound at 6 h ([4]; plasma): 0.004
increase in blood concentration from quadrupling the dose ([5]; 40 vs 10 mg/kg): ~5.7 fold
concentration at 5 h ([5]; 10 mg/kg): 323 ng/mL
concentration at 5 h ([5]; 40 mg/kg): 1830 ng/mL
cytotoxic potency [6]: low μM potency
toxicity in noncancerous cells [7]: minimal toxicity
stability to glutathione (19F NMR) [8]: no displacement of fluoride was observed
IC50 (MV4–11 AML cells): 1.88 ± 0.89 µM
Papp A→B at 5 µM [9]: 0.27 ×10⁻⁶ cm/s
efflux ratio at 5 µM [9]: 3.83
toxicity assessed via weight loss (NSG mice; 60 mg/kg IP daily for 4–5 days, n = 6): no significant weight loss
toxicity based on percentage weight loss compared to vehicle control (NSG mice; 10 and 40 mg/kg IP once a day for 5 days): No visible toxicity
cytotoxic potency [10]: low μM potency
inhibition at 10 µM (HDAC3; read-out: % inhibition HDAC3, at 10 μM): > 90%
inhibition at 10 µM (HDAC4; read-out: % inhibition HDAC4, at 10 μM, n = 2): < 20%
cytotoxic potency (D458 recurrent MDB cells): nM activity
inhibition at 10 µM (HDAC6; read-out: % inhibition HDAC6, at 10 μM): > 90%
cytotoxic potency [11]: nM activity
effect on total STAT5b and pY694 STAT5b (Western blot) (STAT5b (total and pY694)): failed to suppress total STAT5b or pY694 STAT5b
inhibition at 10 µM (HDAC1; read-out: % inhibition HDAC1, at 10 μM, n = 2): ≥ 70%
stability to glutathione (HPLC) [12]: No discernible reaction was observed
cytotoxic potency [13]: low μM potency
